# pIC50, pKd: −log10 of the molar value. Like-named read-outs stand apart in the source and are kept apart here. Positions of bridges follow the written chain, without caps; N, C: chain ends. Residues, ends and D or L forms follow the SMILES beside them.
# How the values were obtained:
# HIV-1 IIIB = assay: Inhibitors alone or in combination against HIV-1 IIIB; type: cell-based
# Experimental: The samples were serially diluted and tested for their inhibitory activity on HIV-1 infection as described above. The data were analyzed for synergistic effect by calculating the combination index (CI) with the CalcuSyn software. CI values of <0.95 and >1.05 indicate synergy and antagonism, respectively. CI <0.1, 0.1–0.3, 0.3–0.7, 0.7–0.85, and 0.85–0.90 indicate very strong synergism, strong synergism, synergism, moderate synergism, and slight synergism, respectively. Fold of dose reduction was calculated with the ratio of concentrations of inhibitor testing alone and in combination.
# [1] = design: method as in PMID 16174446; conditions: reported value; cited from earlier work
# rhesus monkey IgG = assay: Isothermal titration calorimetry (ITC); type: binding; conditions: 300 μM peptide injected into 30 μM rhesus monkey IgG, PBS, 25 °C
# Experimental: ITC assay was performed with an ITC microcalorimeter instrument (NANO ITC, TA Instruments, Lindon, UT) as described previously. In brief, 300 μM peptides were dissolved in PBS and injected into the chamber containing 30 μM of rhesus monkey IgG. The experiments were carried out at 25 °C. The time between injections was 300 s, and the stirring speed was 300 rpm. The heats of dilution were determined in control experiments by injecting peptides into PBS and then subtracting from the heats produced in the corresponding peptide-IgG binding experiments. Data acquisition and analysis were performed using the Origin software, and the best fitting curves were generated with GraphPad Prism.
# [2] = test system: H9/HIV-1IIIB target cells with PBMC effector cells; assay: ADCC assay, 10E8-mediated lysis; type: cell-based, human; conditions: peptide up to 20 μM added to 10E8
# Experimental: H9/HIV-1IIIB cells expressing HIV-1 Env (2.5 × 10^4 cells) as the target cells were seeded into a 96-well plate (25 μL/well), and the mixture of a serially diluted inhibitors and 10E8 (1.5 μg/mL) was added to the culture plate. PBMC (AllCells) as effector cells (2.5 × 10^4 cells in 25 μL) were cocultured with the mixture-treated target cells at 37 °C overnight, and the […] activity was measured using the CytoTox-ONE Homogeneous Membrane Integrity Assay (Promega).
# MT-2 cells = assay: Cytotoxicity assay (CCK-8); type: cell-based; conditions: up to 5 μM, 48 h, CCK-8; triplicate
# Experimental: (§1) The potential cytotoxicity of peptides on MT-2 and M7 cells was measured by using the Cell Counting Kit-8 according to the manufacturer’s instructions (CCK-8, Dojindo Laboratories, Kumamoto, Japan). Briefly, 100 μL of a peptide at graded concentrations were added to equal volumes of cells (10^4 cells/well) in a 96-well plate. Cell viability was evaluated using the CCK-8 kit after incubation at 37 °C for 2 days. Incubation with CCK-8 reagents at 37 °C for another 4 h, the absorbance at 450 nm was measured with an ELISA reader, and the percentage of cytotoxicity was calculated.
# M7 cells = assay: Cytotoxicity assay (CCK-8); type: cell-based; conditions: up to 5 μM, 48 h, triplicate
# Experimental: as §1
# [3] = test system: HIV-1 Bal (subtype B, R5); type: cell-based; conditions: Bal (subtype B, R5)
# Experimental: (§2) Briefly, 1×10^5/mL MT-2 or M7 cells were infected with different HIV-1 viruses at 100 TCID50 (50% tissue culture infective dose) in the presence or absence of peptides at graded concentrations overnight. Then the culture supernatants were replaced with equal volume of fresh medium. On the fourth day post-infection, supernatants were collected and mixed with equal volume of 5% Triton X-100. […] The IC50 values were calculated with CalcuSyn software [35–36], and inhibition curves of best fit were generated with GraphPad Prism.
# [4] = test system: HIV-1 IIIB (subtype B, X4); type: cell-based; conditions: IIIB (subtype B, X4)
# Experimental: as §2
compound,measurement,setting,value
CC1(C)CC(NC(=O)C(=O)Nc2ccc(Cl)cc2)CC(C)(C)N1 [NBD556],pIC50,"HIV-1 IIIB; experiment N6 / NBD556, HIV-1 IIIB, read-out: IC50 Alone",4.55
same,Dose reduction,"HIV-1 IIIB; mixture N6 / NBD556, HIV-1 IIIB",6.1 fold
same,pIC50,"HIV-1 IIIB; mixture N6 / NBD556, HIV-1 IIIB, read-out: IC50 In mixture",5.34
enfuvirtide,reported t1/2,[1],3 h
CC(C)C[C@@H]1NC(=O)[C@H](Cc2c[nH]cn2)NC(=O)[C@H](Cc2c[nH]c3ccccc23)NC(=O)[C@H](C)NC(=O)[C@@H](NC(=O)[C@@H](N)CC(=O)O)CSSC[C@@H](C(=O)N[C@H](C(=O)O)[C@@H](C)O)NC(=O)[C@H](Cc2c[nH]c3ccccc23)NC(=O)[C@H](C(C)C)NC(=O)[C@H](CC(C)C)NC(=O)[C@H](CCC(=O)O)NC(=O)CNC1=O [IBP],pKd,rhesus monkey IgG,5.61
same,effect on 10E8-mediated lytic activity,[2],remained about the same
same,in vitro cytotoxicity to MT-2 cells,MT-2 cells,no in vitro cytotoxicity
same,in vitro cytotoxicity to M7 cells,M7 cells,no in vitro cytotoxicity
CC[C@H](C)[C@H](NC(=O)[C@H](CC(C)C)NC(=O)[C@H](CCC(=O)O)NC(=O)[C@H](CCC(=O)O)NC(=O)[C@@H](NC(=O)[C@H](CCCCN)NC(=O)[C@H](CCCCN)NC(=O)[C@@H](NC(=O)[C@H](Cc1ccc(O)cc1)NC(=O)[C@H](CCC(=O)O)NC(=O)[C@H](CCC(=O)O)NC(=O)[C@@H](NC(=O)[C@H](CCCCN)NC(=O)[C@H](CCCCN)NC(=O)[C@H](CC(=O)O)NC(=O)[C@H](Cc1c[nH]c2ccccc12)NC(=O)[C@H](CCC(=O)O)NC(=O)[C@H](CCC(=O)O)NC(=O)[C@H](Cc1c[nH]c2ccccc12)NC(=O)[C@@H](NC(=O)[C@@H](N)CCSC)[C@@H](C)O)[C@@H](C)CC)[C@@H](C)O)[C@@H](C)CC)C(=O)N[C@@H](CCCCN)C(=O)N[C@@H](CCCCN)C(=O)N[C@@H](CO)C(=O)N[C@@H](CC(=O)O)C(=O)N[C@H]1CSSC[C@@H](C(=O)N[C@H](C(=O)O)[C@@H](C)O)NC(=O)[C@H](Cc2c[nH]c3ccccc23)NC(=O)[C@H](C(C)C)NC(=O)[C@H](CC(C)C)NC(=O)[C@H](CCC(=O)O)NC(=O)CNC(=O)[C@H](CC(C)C)NC(=O)[C@H](Cc2c[nH]cn2)NC(=O)[C@H](Cc2c[nH]c3ccccc23)NC(=O)[C@H](C)NC1=O [CP24-IBP] (H-MTWEEWDKKIEEYTKKIEELIKKSDCAWHLGELVWCT-OH; disulfide 26-36),pIC50,[3],7.96
same,pIC50,[4],7.38

# Source: paper PMC6894747 (PLoS Pathogens, 2019)
